Reference: PMC9323733, “Efficacy of Vafidemstat in Experimental Autoimmune Encephalomyelitis Highlights the KDM1A/RCOR1/HDAC Epigenetic Axis in Multiple Sclerosis” (Pharmaceutics, 2022)

Tests used:
Assay type in all cases: in vivo, mouse
[1] = test system: spleen and lymph nodes of EAE mice; assay: EAE, cell number in spleen and lymph nodes, flow cytometry of CD4 T cells; conditions: ORY-2001 0.5 mg/kg; for CD4+ T cell population of the lymph nodes / cellularity in lymph nodes / number of effector T cells in lymph nodes: FTY720 1.0 mg/kg
Source text: For mechanistic studies in the EAE model, animals were divided into two groups, and samples were collected on day 26 post-immunization (sub-chronic phase), 3 days after the last dose, or on day 17 post-immunization for evaluating the effector phase. For this, mice were euthanized by intracardiac perfusion with saline (0.9%NaCl in H2O MilliQ) after pentobarbital anesthesia (Doletal), and blood samples, spleen, draining lymph nodes (DLNs: cervical, inguinal and axillary), brain, and spinal cord were removed. Serum samples were used for autoantibodies determination. Single-cell suspensions were obtained from spleen or pooled DLNs and used for the determination of cell number and auto-reactive and inflammatory responses, as described later. Brain and spinal segments of the cervical and lumbar regions were prepared separately and processed for RNA isolation, protein extraction, and histopathological analysis. Proteins were extracted from cervical and lumbar segments of spinal cord and brain from EAE mice via homogenization (50 mg tissue/mL) in lysis buffer (50 mM Tris-HCl, pH 7.4, 0.5 mM DTT, and 10 µg/mL proteinase inhibitors PMSF, pepstatin, and leupeptin). Samples were centrifuged (20.000× g, 15 min, 4 °C), and the supernatants were assayed for protein concentration (using Bradford method) and for cytokine/chemokine contents by using specific sandwich ELISAs according to manufacturer’s recommendations (BD Bioscience, Heidelberg, Germany and Peprotech, London, UK). In the TMEV model on day 86 after infection, mice were anesthetized and perfused transcardially, as described above. Spinal cords were obtained via extrusion with saline and prepared for further study.
For the identification of naïve, memory, and effector T cells, lymph nodes were isolated from different EAE groups at the peak of the disease. Cells were collected and distributed into polystyrene tubes for flow cytometry at 0.5 × 10^6 cells/tube and washed twice with washing buffer (10% FBS, 1% sodium azide in PBS; 300 g 5 min 4 °C). Before specific staining, cells were blocked with mouse BD Fc block to avoid nonspecific binding to Fc- receptors and marked with 7-AAD (7-amino-actinomycin D, Calbiochem, San Diego, CA, USA) to distinguish dead cells. Then, cells were incubated with PerCP/Cy5.5 conjugated anti-CD4, APC conjugated anti- CD62L (2 µg/mL), and PE conjugated anti-CD44 mAbs (0.5 µg/mL), following manufacturer’s recommendations (BioLegend) (Supplementary Materials Table S4). Briefly, after washing, cells were stained for 30 min at 4 °C, washed again, and analyzed in a FACSCalibur flow cytometer (BD Pharmingen, Le Pont-de-Claix, France). We used isotype-matched antibodies as controls.

spinal cord of EAE mice = assay: Microarray, spinal cord of EAE mice, effector phase (E), 24 h after treatment; ORY-2001 0.5 mg/kg, FTY720 1.0 mg/kg
Experimental: We evaluated differences in gene expression induced by the treatment using real-time PCR and by microarray hybridization analysis. First, total RNA was isolated from brain and spinal cord segments from EAE mice using Qiazol™ and the RNeasy MiniKit™ extraction kit (Qiagen). Evaluation of RNA quality was performed with the Agilent 2100 bioanalyzer and NanoDrop™ ND-1000 (Thermo Scientific, Dartford, Kent, UK). After DNAse I treatment, RNA (1 µg/sample) was reverse transcribed using RevertAid First strand cDNA Synthesis kit (Fermentas) and random hexamer primers. For evaluating the expression of the inflammatory markers TNFα, IL-1β, IP10, IL-4, and CCL5, real time PCR was performed by using iQ SYBR Green Supermix (Bio-Rad, Feldkirchen, Germany) according to manufacturer’s instructions in a BIORAD CFX96 thermal cycler. Primer sequences and PCR conditions are indicated in Supplementary Materials Table S3. Microarray studies were performed by using DNA microarray oligo probes designed with Tethys, Oryzon’s proprietary software which is based on the in silico thermodynamic simulation of hybridization. Agilent probes were added for genes which yielded no probes, complying with Tethys criteria. Control probes were used to assess detection limits and range, to verify spatial homogeneity, and to determine experimental within-array variation. Microarray slides were synthesized by Agilent. Total RNA (0.5 µg) amplification and labeling with Cy3 or Cy5 was carried out using a modified Eberwine mRNA amplification procedure employing the MessageAmp™ II aRNA Amplification kit from Ambion (ThermoFisher Scientific, Oxford, UK). […]
(§1) For the gene expression studies, data from microarray assays were normalized by modified nonlinear Q-splines normalization method and Log2(Sample/Vehicle) values calculated without background correction (which permits robust selection of differentially expressed genes yet may lead to sub-estimation of the magnitude of change for genes expressed near the detection limit). Differential expression was assessed with the proprietary Polyphemus software using robust statistics on the average technical replicates (3 replicates/gene oligo datapoint) after removing eventual outlier points (caused by dust or array imperfections). […] The p values were calculated after outlier elimination based on the absolute value of the regularized t-statistics, which uses a Bayesian framework to derive the algorithm, using internal replicated controls to assess the minimum technical variability of the process. Correlation between gene expression changes induced by different treatments was analysed by calculating the Pearson correlation coefficient r using the Log2(Treatment/Veh) values for all genes expressed above background level (n). […]

brain of EAE mice = assay: Microarray, brain of EAE mice, effector phase (E), 24 h after treatment; ORY-2001 0.5 mg/kg, FTY720 1.0 mg/kg
Experimental: We evaluated differences in gene expression induced by the treatment using real-time PCR and by microarray hybridization analysis. First, total RNA was isolated from brain and spinal cord segments from EAE mice using Qiazol™ and the RNeasy MiniKit™ extraction kit (Qiagen). Evaluation of RNA quality was performed with the Agilent 2100 bioanalyzer and NanoDrop™ ND-1000 (Thermo Scientific, Dartford, Kent, UK). After DNAse I treatment, RNA (1 µg/sample) was reverse transcribed using RevertAid First strand cDNA Synthesis kit (Fermentas) and random hexamer primers. For evaluating the expression of the inflammatory markers TNFα, IL-1β, IP10, IL-4, and CCL5, real time PCR was performed by using iQ SYBR Green Supermix (Bio-Rad, Feldkirchen, Germany) according to manufacturer’s instructions in a BIORAD CFX96 thermal cycler. Primer sequences and PCR conditions are indicated in Supplementary Materials Table S3. […]
as §1

Structure (SMILES) | cellularity in spleen ([1]; day 17) | CD4+ T cell population of the lymph nodes ([1]; day 17) | cellularity in lymph nodes ([1]; day 17) | number of effector T cells in lymph nodes ([1]; day 17) | number of immune cells in spleen and lymph nodes ([1]; day 26, ORY-LSD1 180 µg/kg) | expression of Aif1, Bst2, Rgs4 and Mtap9 (spinal cord of EAE mice) | expression of Ogn (spinal cord of EAE mice) | expression of Ptpn11, Kif1b and Pik3r1 (spinal cord of EAE mice) | expression of pituitary markers Gh, Prl, Pomc, Cga (brain of EAE mice) | expression of Cox1 (brain of EAE mice)
Nc1nnc(CN[C@@H]2C[C@H]2c2ccc(OCc3ccccc3)cc2)o1 [ORY-2001] | increased it significantly in the spleen | increased the CD^4+ T cell population of the lymph nodes | increased the cellularity in lymph nodes | significantly increased | significant increase in the number of immune cells | downregulated Aif1 | preserved the expression of Ogn | prevented the induction of Ptpn11 | potently downregulated the pituitary markers Gh, Prl, Pomc, and Cga | 
CCCCCCCCc1ccc(CCC(N)(CO)CO)cc1 [FTY720, Fingolimod, reference compound] |  | increased the CD^4+ T cell population of the lymph nodes | increased the cellularity in lymph nodes | significantly increased |  |  | downregulated by FTY720 |  | potently downregulated the pituitary markers Gh, Prl, Pomc, and Cga | induction of Cox1
